# How the values were obtained:
# HeLa = assay: Cytotoxicity against human HeLa cells assessed as reduction in cell viability incubated for 24 hrs by MTT assay
# [1] = target: T1, Heat shock protein 75 kDa, mitochondrial (Homo sapiens, UniProt Q12931)
# T1 sequence (Q12931 whole entry): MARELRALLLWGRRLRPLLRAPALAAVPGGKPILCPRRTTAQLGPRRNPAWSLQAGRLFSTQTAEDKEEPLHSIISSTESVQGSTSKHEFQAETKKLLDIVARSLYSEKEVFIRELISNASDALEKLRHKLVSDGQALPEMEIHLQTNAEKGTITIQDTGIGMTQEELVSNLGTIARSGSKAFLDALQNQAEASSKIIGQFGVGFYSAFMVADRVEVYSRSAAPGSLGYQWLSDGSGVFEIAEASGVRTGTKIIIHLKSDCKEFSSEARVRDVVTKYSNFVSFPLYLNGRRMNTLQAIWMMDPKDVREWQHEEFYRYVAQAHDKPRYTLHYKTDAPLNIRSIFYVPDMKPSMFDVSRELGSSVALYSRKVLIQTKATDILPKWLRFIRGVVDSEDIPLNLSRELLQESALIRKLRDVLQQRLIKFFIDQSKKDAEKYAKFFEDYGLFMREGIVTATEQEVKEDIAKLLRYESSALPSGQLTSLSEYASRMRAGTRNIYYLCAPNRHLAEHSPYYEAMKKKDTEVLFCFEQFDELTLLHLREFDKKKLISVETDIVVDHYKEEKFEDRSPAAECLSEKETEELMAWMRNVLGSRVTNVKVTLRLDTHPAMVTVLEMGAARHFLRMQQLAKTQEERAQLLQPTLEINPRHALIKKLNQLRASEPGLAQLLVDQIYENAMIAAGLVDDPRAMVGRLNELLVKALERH
# CWR22R = assay: Cytotoxicity against human 22Rv1 cells assessed as reduction in cell viability incubated for 24 hrs by MTT assay; details: 22Rv1, 24 h
# [2] = target: T1, Heat shock protein 75 kDa, mitochondrial; assay: Binding affinity to TRAP1 (unknown origin) assessed as dissociation constant by MST analysis
# [3] = target: T1, Heat shock protein 75 kDa, mitochondrial; remark: listed apart in the source
# Description: Binding affinity to N-terminal 6Hits-tagged/TEV-fused human wildtype TRAP1 extracted from Escherichia coli BL21 (DE3) cells assessed as dissociation constant incubated for 2 hrs by fluorescence polarization assay
# [4] = target: T1, Heat shock protein 75 kDa, mitochondrial; assay: Binding affinity to TRAP1 (unknown origin) assessed as dissociation constant incubated for 15 mins by MST analysis
# [5] = target: Heat shock protein 75 kDa, mitochondrial (Homo sapiens, UniProt Q12931, F353A/F531A)
# Sequence of Heat shock protein 75 kDa, mitochondrial (Homo sapiens, UniProt Q12931, F353A/F531A) (Q12931 60-704 F353A/F531A limits assumed): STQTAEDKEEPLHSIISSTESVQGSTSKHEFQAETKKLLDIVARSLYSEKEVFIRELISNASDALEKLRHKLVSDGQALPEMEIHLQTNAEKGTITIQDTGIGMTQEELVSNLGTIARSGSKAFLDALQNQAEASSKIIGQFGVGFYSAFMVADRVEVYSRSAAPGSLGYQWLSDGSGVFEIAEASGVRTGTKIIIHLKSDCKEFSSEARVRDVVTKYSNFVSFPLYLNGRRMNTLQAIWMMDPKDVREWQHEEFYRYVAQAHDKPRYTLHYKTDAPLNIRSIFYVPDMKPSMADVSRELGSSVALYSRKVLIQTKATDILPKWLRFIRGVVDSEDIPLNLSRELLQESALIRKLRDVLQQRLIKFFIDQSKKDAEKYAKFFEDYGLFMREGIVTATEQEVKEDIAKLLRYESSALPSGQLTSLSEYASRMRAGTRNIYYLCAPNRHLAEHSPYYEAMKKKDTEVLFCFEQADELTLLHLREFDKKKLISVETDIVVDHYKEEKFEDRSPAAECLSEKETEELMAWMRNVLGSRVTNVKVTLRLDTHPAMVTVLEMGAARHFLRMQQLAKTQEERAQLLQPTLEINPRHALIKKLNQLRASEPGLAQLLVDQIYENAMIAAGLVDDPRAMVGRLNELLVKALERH
IC50 [1],Kd [2],Kd [3],Kd [4],Kd [5],Compound,IC50 (HeLa),IC50 (CWR22R)
14.1 µM,–,–,–,–,O=C(CCCCCCCCCC[P+](c1ccccc1)(c1ccccc1)c1ccccc1)Nc1nccs1,6.38 µM,2.25 µM
> 20 µM,–,–,–,–,CC1(C)CC(C(=O)OCC[P+](c2ccccc2)(c2ccccc2)c2ccccc2)C(C)(C)N1O (stereo not given),> 20 µM,> 20 µM
9.96 µM,–,–,–,–,c1ccc([P+](Cc2c3ccccc3c(C[P+](c3ccccc3)(c3ccccc3)c3ccccc3)c3ccccc23)(c2ccccc2)c2ccccc2)cc1,> 20 µM,> 20 µM
3.77 µM,–,–,–,–,COc1c(C)c(CCCCCCCCCC[P+](c2ccccc2)(c2ccccc2)c2ccccc2)c(OC)c(OC)c1OC,1.65 µM,0.385 µM
> 20 µM,–,–,–,–,COc1cc(COC(=O)CCCCC[P+](c2ccccc2)(c2ccccc2)c2ccccc2)c(OC)c2c1OCO2,> 20 µM,18.3 µM
3.8 µM,–,–,–,–,COc1cc(C)c(CCCCCCCCCC[P+](c2ccccc2)(c2ccccc2)c2ccccc2)cc1OC,3.21 µM,0.502 µM
8.05 µM,–,–,–,–,CC(C)(C)[Si](C)(C)O[C@H]1CC[C@]2(C)[C@H]1[C@H]2CCC[P+](c1ccccc1)(c1ccccc1)c1ccccc1,1.67 µM,0.86 µM
8.94 µM,–,–,–,–,O=C(CCCCCCCCC[P+](c1ccccc1)(c1ccccc1)c1ccccc1)Oc1ccc(-c2cc(=S)ss2)cc1,> 20 µM,> 20 µM
5.2 µM,6.6 µM,–,–,–,COC1=C(OC)C(=O)C(CCCCCCCCCC[P+](c2ccccc2)(c2ccccc2)c2ccccc2)=C(C)C1=O [MITOQUINONE CATION],4.3 µM,0.597 µM
> 20 µM,–,–,–,–,O=C(C/C(=C/c1ccccc1)C[P+](c1ccccc1)(c1ccccc1)c1ccccc1)C/C(=C\c1ccccc1)C[P+](c1ccccc1)(c1ccccc1)c1ccccc1,> 20 µM,17.4 µM
–,–,0.27 µM,0.37 µM,5.21 µM,CN(CCCCCCCC[P+](c1ccccc1)(c1ccccc1)c1ccccc1)C(=O)c1ccccc1C1=c2cc3c4c(c2Oc2c1cc1c5c2CCCN5CCC1)CCC[N+]=4CCC3,–,–
8.42 µM,–,–,–,–,Cc1c(C)c2c(c(C)c1O)CCC(C)(CCCCCCCCCC[P+](c1ccccc1)(c1ccccc1)c1ccccc1)O2 (stereo not given),1.45 µM,0.183 µM
–,–,0.81 µM,–,–,CCN(CC)c1ccc2c(-c3ccccc3C(=O)N(C)CCCCCC[P+](c3ccccc3)(c3ccccc3)c3ccccc3)c3ccc(=[N+](CC)CC)cc-3oc2c1,–,–
> 20 µM,–,–,–,–,COC1=C(OC)C(=O)C(C[P+](c2ccccc2)(c2ccccc2)c2ccccc2)=C(C)C1=O,> 20 µM,16.3 µM
2.53 µM,–,–,4.41 µM,28 µM,CN(C)CCOc1ccc(/C(=C(/CCCCCCCCCC[P+](c2ccccc2)(c2ccccc2)c2ccccc2)c2ccccc2)c2ccccc2)cc1,0.94 µM,0.62 µM
> 20 µM,–,–,–,–,Cc1c(C)c2c(c(C)c1O)CCC(C)(CC[P+](c1ccccc1)(c1ccccc1)c1ccccc1)O2 (stereo not given),> 20 µM,17.4 µM
> 20 µM,–,–,–,–,O=C(c1ccccc1)C(O)(CCC[P+](c1ccccc1)(c1ccccc1)c1ccccc1)c1ccccc1 (stereo not given),17.6 µM,3.49 µM
–,–,2.19 µM,–,–,CCN(CC)c1ccc2c(-c3ccccc3C(=O)N(C)CCCCCCCC[P+](c3ccccc3)(c3ccccc3)c3ccccc3)c3ccc(=[N+](CC)CC)cc-3oc2c1,–,–
–,–,1.52 µM,–,–,CN(CCCCCC[P+](c1ccccc1)(c1ccccc1)c1ccccc1)C(=O)c1ccccc1C1=c2cc3c4c(c2Oc2c1cc1c5c2CCCN5CCC1)CCC[N+]=4CCC3,–,–
4.75 µM,–,–,–,–,CC1(C)CC(C(=O)OCCCCCCCCCC[P+](c2ccccc2)(c2ccccc2)c2ccccc2)C(C)(C)N1O (stereo not given),5.15 µM,0.601 µM
4.07 µM,–,–,–,–,COc1c(Br)c(C)c(CCCCCCCCCC[P+](c2ccccc2)(c2ccccc2)c2ccccc2)c(OC)c1OC,1.61 µM,0.37 µM

# Source: ChEMBL document CHEMBL6083281, “Development of a Fluorescence Probe for High-Throughput Screening of Allosteric Inhibitors Targeting TRAP1” (J Med Chem, 2024)
